Test system: brainstem
Assay: Test of the effect of oral methylphenidate on evoked averaged brainstem response in a patient with ADHD
Format: in vivo, human
Description: To emphasize the importance of using the subject as its own reference when conducting herein described tests, FIG. 8a-c is showing a test of the effect of oral methylphenidate medication in a patient with ADHD. In this test each of the train of sound pulses will repeatedly present sound pulses to the patient for thirty seconds and for each sound pulse presented to the subject a corresponding response signal is recorded. The response signal for each set of train of sound pulses is then averaged to obtain an evoked averaged brainstem response.
In FIG. 8a, a measuring with only unmodified sound pulses, i.e. the sound stimuli comprising only one train being a train of unmodified sound pulses 72. Sound stimuli were presented twice to the subject (at t0+0 and t0+60 sec) and the corresponding response signals were recorded and evoked averaged brainstem responses were established 74a, 74b. This was done when the patient was not under influence of methylphenidate medication, i.e. baseline or control state. The measured variable is here an absolute value 70 measured in μV of the amplitude of peak III. […] Both times the corresponding response signals were recorded and evoked averaged brainstem responses were established 74c, 74d.
In FIG. 8b, a measuring with only modified sound pulses, i.e. the sound stimuli comprising only one train being a train of modified sound pulses 73. Sound stimuli were presented twice to the subject (at t0+0 and t0+60 sec) and the corresponding response signals were recorded and evoked averaged brainstem responses were established 75a, 75b. This was done when the patient was not under influence of methylphenidate medication, i.e. baseline or control state. The measured variable is here an absolute value 71 measured in NV of the amplitude of peak III. […] Both times the corresponding response signals were recorded and evoked averaged brainstem responses were established 75c, 75d. […]

Compound: COC(=O)C(c1ccccc1)C1CCCCN1 (stereo not drawn) [methylphenidate]
- methylphenidate effect on amplitude of peak III (absolute value), only modified sound pulses (single train of modified sound pulses, t1+0 and t1+60 sec vs drug-free baseline, FIG. 8b): no detectable methylphenidate effect could be established
- methylphenidate effect on amplitude of peak III (absolute value), only unmodified sound pulses (single train of unmodified sound pulses, t1+0 and t1+60 sec vs drug-free baseline, FIG. 8a): no detectable methylphenidate effect could be established
- methylphenidate effect on relative measure (modified train averaged evoked brainstem response as a percentage of the unmodified average evoked response) (unmodified train followed by modified train, compared at t1+60 sec and t1+120 sec vs drug-free baseline, FIG. 8c): detectable methylphenidate effect could be seen

Source: patent US10575752B2, “System and method for determination of a brainstem response state development” (SensoDetect AB, priority 2010, dated 2020)
